These results are taken from publication PMC9828467 (Chemmedchem, 2022).

Each structure is given as a SMILES string.

Assay [1] has as its target Plasmin from human plasma (Homo sapiens, UniProt P00747). Description: Plasmin inhibition assay with chromogenic substrate S-2251. Type of assay: biochemical. Particulars: ratio to Ki of monovalent AMB.
For a further assay, the system named is plasmin. Particulars: cited from earlier work.

Sequence of Plasmin from human plasma (P00747 581-810 limits assumed): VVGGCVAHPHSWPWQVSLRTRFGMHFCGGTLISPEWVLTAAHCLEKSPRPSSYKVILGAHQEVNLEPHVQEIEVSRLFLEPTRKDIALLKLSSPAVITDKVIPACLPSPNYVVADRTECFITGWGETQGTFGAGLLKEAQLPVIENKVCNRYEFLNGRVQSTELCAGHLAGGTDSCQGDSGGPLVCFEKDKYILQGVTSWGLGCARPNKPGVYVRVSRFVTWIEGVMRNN
Sequence of Plasmin from human plasma (P00747 98-580 partner limits assumed): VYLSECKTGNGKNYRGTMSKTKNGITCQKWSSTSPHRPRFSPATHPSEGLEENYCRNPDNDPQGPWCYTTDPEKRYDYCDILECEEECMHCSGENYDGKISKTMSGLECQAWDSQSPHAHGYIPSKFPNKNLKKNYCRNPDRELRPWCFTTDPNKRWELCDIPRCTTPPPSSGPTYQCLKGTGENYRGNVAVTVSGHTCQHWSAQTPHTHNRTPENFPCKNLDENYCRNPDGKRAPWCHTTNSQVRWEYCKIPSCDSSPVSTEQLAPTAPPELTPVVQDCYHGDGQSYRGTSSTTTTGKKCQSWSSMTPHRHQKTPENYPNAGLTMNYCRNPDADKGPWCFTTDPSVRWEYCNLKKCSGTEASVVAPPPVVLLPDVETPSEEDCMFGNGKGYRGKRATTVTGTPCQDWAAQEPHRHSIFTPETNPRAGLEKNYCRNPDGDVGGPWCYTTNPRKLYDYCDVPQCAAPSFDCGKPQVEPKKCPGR

For `N=C(N)c1ccc(OCCCCCOc2ccc(C(=N)N)cc2)cc1` [Pentamidine, reference compound], in assay [1], the “rp: relative potency = Ki AMB/Ki multi” value amounted to 664.3. Besides, the “Fold stronger plasmin inhibitor than the strongest monovalent benzamidine” value in the assay on plasmin is given as 13 fold. For `COCCOCCOCCOCCOCCOCCOCCOCCOCCOCCOCCOCCOCCOCCOCCOCCOCCOCCOCCOCCOCCOCCOCCOCCOCCC(=O)NCc1ccc(C(=N)N)cc1` [m‐dPEG24−AMB], in assay [1], the “rp: relative potency = Ki AMB/Ki multi” value came to 2.7. Regarding `N=C(N)c1ccc(CNC(=O)CCOCCOCCOCCOCCNC(=O)CN(CC(=O)NCCOCCOCCOCCOCCC(=O)NCc2ccc(C(=N)N)cc2)CC(=O)NCCOCCOCCOCCOCCC(=O)NCc2ccc(C(=N)N)cc2)cc1` [Tri‐PEG4−AMB], the “rp: relative potency = Ki AMB/Ki multi” value in assay [1] turned out to be 27.6. As to `COCCOCCOCCOCCOCCOCCOCCOCCOCCOCCOCCOCCOCCC(=O)NCc1ccc(C(=N)N)cc1` [m‐dPEG12−AMB], the “rp: relative potency = Ki AMB/Ki multi” value in assay [1] was 3.9.
